Results as given in patent US9566290B2, “Boron-containing small molecules” (Anacor Pharmaceuticals, Inc., priority 2005, dated 2017).
Converted amounts (≈) assume the structure as drawn. Like-named read-outs stand apart in the source and are kept apart here.

Assays:
[1] = tested on: Saccharomyces cerevisiae strain ATCC 201388; assay: MIC (NCCLS M27, YPD or synthetic defined media), haploid parental strain; type: cell-based
Method: (§1) The haploid Saccharomyces cerevisiae strain ATCC 201388 was used in the selection of C10 resistant mutants. Spontaneous and EMS-induced resistant mutants were isolated from YPD agar plates containing 4×, 8×, 16×MIC of C10. All minimal inhibitory concentrations (MIC) were determined using NCCLS protocol M27 with the exception of using YPD or synthetic defined media. All yeast and molecular genetic manipulations were essentially performed as described by Guthrie C., et al., Methods in Enzymology, 350: Part B, (2002).
(§2) The minimal inhibitory concentration (MIC) was essentially performed following the NCCLS guidelines outlined in the M27 protocol with the exception of using YPD or synthetic defined media (SDM).

[2] = tested on: S. cerevisiae C10 resistant mutants (CDC60 editing domain mutations); assay: MIC (NCCLS M27), spontaneous and EMS induced C10 resistant mutants; type: cell-based, Saccharomyces cerevisiae
Method: as §1
Resistant mutants appeared after 2 d incubation at 30° C. Frequency of resistance was determined by dividing the number of resistant mutants by the total number of cells plated as determined by plating dilutions of the overnight culture on YPD plates.
A 2.5 mL of the overnight culture, which was grown in YPD media, was centrifuged at 700×g for 5 minutes. The cell pellet was resuspended in 10 mL 50 mM potassium phosphate buffer, pH 7.0. The cell suspension was centrifuged again and the cell pellet was resuspended in phosphate buffer to obtain a cell density of 5×10^7 cells/mL as determined by counting the cells using a Petroff Hausser Counting Chamber (Horsham, Pa. USA). The cell suspension was shaken with 300 μL of EMS (Alfa Aesar, Ward Hill, Mass., USA) for 30 min. at 30° C. The mutagenesis was stopped by adding 10% (w/v) sodium thiosulfate (Sigma-Aldrich, St. Louis, Mo., USA), and the cells were pelleted by centrifugation at 700×g for 5 min. and resuspended in 1 mL sterile H2O. This was repeated once more before the cells were plated on YPD agar plates containing 1.6 μg/mL of C10.
as §2

[3] = tested on: S. cerevisiae ATCC201388 bearing pRS425 or CDC60 on pRS425; assay: MIC with over-expression of wild type CDC60; type: cell-based, Saccharomyces cerevisiae; settings: Saccharomyces cerevisiae
From the text: as §2
A 4.0 kb BamH I-Sal I DNA fragment containing the entire CDC60 open reading frame (ORF) and 700 bp of upstream sequence was amplified using KOD DNA polymerase, S. cerevisiae genomic DNA (Novagen, Madison, Wis., USA), and the primers GAGGGATCCGGTTAGTTTTAGTTCGCGAGTGACCTG and GAGGTCGACGATTTCTGGTTGCTGTTTATTGATCTT (Operon, Alameda, Calif., USA). This DNA fragment was then cloned into the […] multi-copy plasmid pRS425, and transformed into S. cerevisiae ATCC201388 (Gietz, R D et al., Methods in Enzymology 305: 87-96 (2002)).

[4] = type: in vitro ADME, human
Method: C10, 5-fluoro-1,3-dihydro-1-phenyl-2,1-benzoxaborole, C1, and 5-fluoro-1,3-dihydro-1-(3-hydroxymethylphenyl)-2,1-benzoxaborole, formulated at 10% w/v in ethanol, were tested. A single aliquot (10 μl) of each formulation was dosed to the top of human nail plates using the nail penetration procedure described below, and allowed to stand for 3-days. The dosed area was washed, and then the cotton ball bed supporting the nail and the nail samples were collected at the end of the incubation period, stored at 4° C. and analyzed for drug using LC/MS/MS.
Details of the nail incubation have been previously described^9, 10. […] The supporting cotton ball under the nail was wetted by normal saline providing moisture for the nail plate, and the degree of hydration was monitored and controlled during the experiment. […]
LC/MS/MS (API3000, Applied Biosystems, Foster City, Calif.) was used to quantitate the amounts of non-radiolabeled oxaboroles, C10, 5-fluoro-1,3-dihydro-1-phenyl-2,1-benzoxaborole, C1, and 5-fluoro-1,3-dihydro-1-(3-hydroxymethylphenyl)-2,1-benzoxaborole in samples from the nail penetration studies. […] After centrifugation, the filtrate from the cotton ball samples was transferred to autosampler vials and analyzed by LC/MS/MS. […]

[5] = Saccharomyces cerevisiae, ATCC201388, Table 2, ATCC201388, read-out: MIC
[6] = Saccharomyces cerevisiae, Table 2, C10 resistant mutant (C)
[7] = Saccharomyces cerevisiae, Table 2, C10 resistant mutant (G)
[8] = Saccharomyces cerevisiae, Table 2, C10 resistant mutant (H)
[9] = Table 2, C10 resistant mutant (C)
[10] = Table 2, C10 resistant mutant (G)
[11] = Table 2, C10 resistant mutant (H)

C[C@@H]1[C@H](O)[C@@H](C)/C=C/C=C/C=C/C=C/C=C/C=C/C=C/[C@H](O[C@@H]2O[C@H](C)[C@@H](O)[C@H](N)[C@@H]2O)C[C@@H]2O[C@](O)(C[C@@H](O)C[C@@H](O)[C@H](O)CC[C@@H](O)C[C@@H](O)CC(=O)O[C@H]1C)C[C@H](O)[C@H]2C(=O)O [Amphotericin B]
MIC ([1]; Table 2, ATCC201388): 0.125 µg/mL (≈ 0.135 µM)
resistance of C10 resistant mutants to other antifungals, in words [2]: not resistant

OC(Cn1cncn1)(Cn1cncn1)c1ccc(F)cc1F [Fluconazole, reference compound]
MIC ([3]; ATCC201388, CDC60 on pRS425 (20 copies)): 2 µg/mL (≈ 6.53 µM)
MIC ([3]; ATCC201388, pRS425 Plasmid control): 2 µg/mL (≈ 6.53 µM)

CCC(C)n1ncn(-c2ccc(N3CCN(c4ccc(OCC5COC(Cn6cncn6)(c6ccc(Cl)cc6Cl)O5)cc4)CC3)cc2)c1=O (stereo not drawn) [Itraconazole]
MIC [1, 5]: 0.125 µg/mL (≈ 0.177 µM)
MIC [2, 6]: 0.125 µg/mL (≈ 0.177 µM)
MIC [2, 7]: 0.125 µg/mL (≈ 0.177 µM)
MIC [2, 8]: 0.125 µg/mL (≈ 0.177 µM)

CN(C/C=C/C#CC(C)(C)C)Cc1cccc2ccccc12 [Terbinafine]
MIC [1, 5]: 4 µg/mL (≈ 13.7 µM)
resistance of C10 resistant mutants to other antifungals, in words [2]: not resistant
MIC [2, 6]: 4 µg/mL (≈ 13.7 µM)
MIC [2, 7]: 4 µg/mL (≈ 13.7 µM)
MIC [2, 8]: 4 µg/mL (≈ 13.7 µM)

Aculeacin A
MIC ([1]; Table 2, ATCC201388): 4 µg/mL
resistance of C10 resistant mutants to other antifungals, in words [2]: not resistant
MIC [2, 9]: 4 µg/mL
MIC [2, 10]: 4 µg/mL
MIC [2, 11]: 4 µg/mL

C[C@@H]1C[C@@H]([C@H](O)CC2CC(=O)NC(=O)C2)C(=O)[C@@H](C)C1 [Cyclohexamide]
MIC ([1]; Table 2, ATCC201388): <0.06 µg/mL
resistance of C10 resistant mutants to other antifungals, in words [2]: not resistant
MIC [2, 9]: <0.06 µg/mL
MIC [2, 10]: <0.06 µg/mL
MIC [2, 11]: <0.06 µg/mL

Fc1ccc2c(c1)COB2c1ccccc1 [Compound 3, 5-fluoro-1,3-dihydro-1-phenyl-2,1-benzoxaborole]
penetration of the nail plate, in words [4]: penetrates the nail plate poorly

C/C=C/C/C=C/CCC(=O)[C@H]1O[C@H]1C(N)=O [Cerulenin]
MIC ([1]; Saccharomyces cerevisiae, ATCC201388, Table 1, haploid strain ATCC201388, read-out: MIC): 1 µg/mL (≈ 4.48 µM)
MIC [1, 5]: 0.5 µg/mL (≈ 2.24 µM)
resistance of C10 resistant mutants to other antifungals, in words [2]: not resistant
MIC ([2]; Saccharomyces cerevisiae, Table 1, mutant (A), CDC60 N415D): 0.5 µg/mL (≈ 2.24 µM)
MIC ([2]; Saccharomyces cerevisiae, Table 1, mutant (B), CDC60 R316I): 0.5 µg/mL (≈ 2.24 µM)
MIC ([2]; Saccharomyces cerevisiae, Table 1, mutant (C), CDC60 C326F): 0.5 µg/mL (≈ 2.24 µM)
MIC ([2]; Saccharomyces cerevisiae, Table 1, mutant (D), CDC60 G405V): 0.5 µg/mL (≈ 2.24 µM)
MIC ([2]; Saccharomyces cerevisiae, Table 1, mutant (E), CDC60 C326R): 0.5 µg/mL (≈ 2.24 µM)
MIC ([2]; Saccharomyces cerevisiae, Table 1, mutant (F), CDC60 D487G): 0.5 µg/mL (≈ 2.24 µM)
MIC ([2]; Saccharomyces cerevisiae, Table 1, mutant (G), CDC60 L315V): 0.5 µg/mL (≈ 2.24 µM)
MIC ([2]; Saccharomyces cerevisiae, Table 1, mutant (H), CDC60 T314M): 0.5 µg/mL (≈ 2.24 µM)
MIC ([2]; Saccharomyces cerevisiae, Table 1, mutant (I), CDC60 S416L): 1 µg/mL (≈ 4.48 µM)
MIC ([2]; Saccharomyces cerevisiae, Table 1, mutant (J), CDC60 D487N): 1 µg/mL (≈ 4.48 µM)
MIC ([2]; Saccharomyces cerevisiae, Table 1, mutant (K), CDC60 T319I): 1 µg/mL (≈ 4.48 µM)
MIC [2, 6]: 0.5 µg/mL (≈ 2.24 µM)
MIC [2, 7]: 0.5 µg/mL (≈ 2.24 µM)
MIC [2, 8]: 0.5 µg/mL (≈ 2.24 µM)

Tunicamycin
MIC ([1]; Table 2, ATCC201388): 8 µg/mL
resistance of C10 resistant mutants to other antifungals, in words [2]: not resistant
MIC [2, 9]: 8 µg/mL
MIC [2, 10]: 8 µg/mL
MIC [2, 11]: 8 µg/mL

C[C@@H]([C@H](N)C(=O)N[C@H](C(=O)O)[C@H]1O[C@@H](n2ccc(=O)[nH]c2=O)[C@H](O)[C@@H]1O)[C@H](O)c1ccc(O)cn1 [Nikkomycin Z]
MIC ([1]; Table 2, ATCC201388): 64 µg/mL (≈ 129 µM)
resistance of C10 resistant mutants to other antifungals, in words [2]: not resistant
MIC [2, 9]: 64 µg/mL (≈ 129 µM)
MIC [2, 10]: 64 µg/mL (≈ 129 µM)
MIC [2, 11]: 64 µg/mL (≈ 129 µM)

OB1OCc2ccc(Oc3ccccc3)cc21 [C21, 6-phenoxybenzo[c][1,2]oxaborol-1(3H)-ol]
melting point: 95 to 99 °C

COc1ccc(Oc2ccc3c(c2)B(O)OC3)cc1 [C31, 6-(4-methoxyphenoxy)benzo[c][1,2]oxaborol-1(3H)-ol]
melting point: 126 to 129 °C

Cc1cccc2c1B(O)OC2 [C65, 7-methylbenzo[c][1,2]oxaborol-1(3H)-ol]
melting point: 107 to 111 °C
